These results are taken from PMC6748665 (Journal of Medicinal Chemistry, 2019).

The assay deals with T1, MtbTrmD (Mycobacterium tuberculosis, UniProt P9WFY7).
T1 sequence (P9WFY7 1-230): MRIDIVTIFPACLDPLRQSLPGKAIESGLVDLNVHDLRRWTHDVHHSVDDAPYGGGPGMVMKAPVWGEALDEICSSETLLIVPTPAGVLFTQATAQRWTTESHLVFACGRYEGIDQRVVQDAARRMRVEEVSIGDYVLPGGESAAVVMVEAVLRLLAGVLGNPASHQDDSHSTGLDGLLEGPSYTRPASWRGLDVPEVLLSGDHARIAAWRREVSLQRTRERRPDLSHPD
In words: Surface plasmon resonance. The assay is classed as binding. Particulars: SPR. On the technique in general: Surface plasmon resonance follows binding to a sensor surface in real time, without labels.

In the case of `CCCCCCCCNCc1ccc(CNC(=O)c2csc3nc[nH]c(=O)c23)cc1` [Compound 15, N-(4-((Octylamino)methyl)benzyl)-4-oxo-3,4-dihydrothieno[2,3-d]pyrimidine-5-carboxamide], the “lower affinity for MtbTrmD compared to the PaTrmD binding affinity” value is given as “over 100 fold”.
